Reference: US4916152A, “Pyrrolidine derivatives as antiasthmatics” (Fujisawa Pharmaceutical Co., Ltd., priority 1987, dated 1990)
Counter-ions that a name gives are not always drawn.

Key:
[1] = test system: 9,11-azo PGH2 induced aggregation of rabbit platelet; assay: Effect on 9,11-azo PGH2 induced aggregation of rabbit platelet in vitro; type: cell-based; settings: Oryctolagus cuniculus; rabbit platelet rich plasma, in vitro, 9,11-azo PGH2 (final 1.0 μM), 37° C.; read-out: IC50 (Inhibition concentration of platelet aggregation by 50%)
Excerpt: (§1) In the following tests, the used 9, 11-azo PGH2 and 9,11-methanoepoxy PGH2 (U46619) are characterized pharmacologically as TXA2 mimetic agents and widely used for evaluating TXA2 antagonism of test compounds (for example, vide The Journal of Pharmacology and Experimental Therapeutics Vol. 234, pp 435-441).
Test 1 (Effect on 9,11-azo PGH2 induced aggregation of rabbit platelet in vitro) (a) Test method
In the in vitro experiments, the blood was collected from the carotid artery of rabbits into plastic vessels containing 0.1 volume of 3.8% aqueous sodium citrate. Platelet rich plasma (PRP) was prepared by centrifugation at 150 g for 15 minutes. Platelet aggregation was investigated using the turbidometric method with an aggregometer (NKK HEMATRACER 1). To the 225 μl of PRP, 25 μl of test compound solution was added, and then stirred at 1000 rpm for 2 minutes at 37° C. To the solution, 5 μl of 9,11-azo PGH2 (final 1.0 μM) was added as an aggregating inducer. IC50 (Inhibition concentration of platelet aggregation by 50%) were graphically determined.

[2] = test system: 9,11-methanoepoxy PGH2 induced platelet aggregation; assay: Effect on 9,11-methanoepoxy PGH2 (U46619) induced platelet aggregation ex vivo; type: in vivo, male Hartley strain guinea-pigs; settings: Cavia porcellus, guinea-pig, oral administration 0.032 mg/kg, 1 hour before blood collection, U46619 0.5 μM
Excerpt: as §1
Test 2. (Effect on 9,11-methanoepoxy PGH2 induced platelet aggregation ex vivo)
In the ex vivo experiments, male Hartley strain guinea-pigs weighing about 300 g were used after overnight fasting. Animals received an oral administration of test compound (0.032 mg/kg) or vehicle 1 hour before the blood collection from abdominal artery PRP was prepared as described above, and platelet aggregation was induced by adding 5 μl of 9,11-methanoepoxy PGH2 (U46619, 0.5 μM) to 250 μl of PRP.

IC50 [1] | Compound | inhibition at 0.032 mg/kg [2]
85 nM | O=C(O)CCCC=C[C@@H]1C[C@@H](NS(=O)(=O)c2ccc(Cl)cc2)CN1S(=O)(=O)c1ccc(Cl)cc1 [Test compound (1), Sodium salt of (2S,4R)-2-[(E and Z)-5-carboxy-1-pentenyl]-1-(4-chlorophenylsulfonyl)-4-(4-chlorophenylsulfonylamino)pyrrolidine] | 94.2%
55 nM | O=C(O)CCC/C=C\[C@@H]1C[C@@H](NS(=O)(=O)c2ccc(Cl)cc2)CN1S(=O)(=O)c1ccc(Cl)cc1 [Test compound (2), (2S,4R)-2-[(Z)-5-Carboxy-1-pentenyl]-1-(4-chlorophenylsulfonyl)-4-(4-chlorophenylsulfonylamino)pyrrolidine] | 100%
